Assay results reported in US20030041357A1, “Herbicide resistant plants” (priority 1996, published 2003).

Columns and labels:
[1] = system: wild type tomato (cv Ailsa Craig); experiment: PDS inhibitor herbicide tolerance trial; format: in vivo
[2] = system: transgenic tomato over-expressing the Erwinia uredovora crt1 (PDS) gene; experiment: PDS inhibitor herbicide tolerance trial; format: in vivo; details: for Phytotoxity at 27 PAT: Transgenic tomato
[3] = system: pDV6 plants expressing both glyphosate resistance genes and GST; experiment: Pre-em/post-em herbicide treatment of DV6 plants (Table 1); set-up: species or system Tobacco; details: in vivo
wild-type tobacco = experiment: Rooting assay on MS medium with herbicide; format: in vivo, Nicotiana tabacum cv Samsum; details: for root growth of explants: 3 weeks, 10, 20, 40 ppm acetochlor/metolachlor, 20, 40, 100 ppm alachlor
GST-27 tobacco lines = experiment: Rooting assay on MS medium with herbicide; format: in vivo, Nicotiana tabacum cv Samsum
[4] = system: transgenic tobacco plants expressing GST-27; experiment: Pre-emergence glasshouse herbicide trial; format: in vivo, Nicotiana tabacum cv Samsum; details: 300 and 350 g/ha in 5% JF 5969
[5] = system: transgenic tobacco plants expressing GST-27; experiment: Post-emergence glasshouse herbicide trial; format: in vivo, Nicotiana tabacum cv Samsum; details: sprayed 16 days after sowing, 5% JF 5969
wild type controls = experiment: Growth on herbicide-containing tissue culture medium; format: in vivo, Tobacco; details: 0.01 and 0.05 mM glyphosate; 10 and 40 ppm alachlor
[6] = system: primary transformants from pDV6-Bin; experiment: as above; format: in vivo, Tobacco; details: a number of transgenics; 0.01 and 0.05 mM glyphosate; 10 and 40 ppm alachlor
[7] = molecular target: GST-27 (leaf extracts of GST-27 expressing tobacco) (Zea mays, UniProt P46420); experiment: In vitro HPLC assay of GST activity against herbicide substrates; format: biochemical; details: GST-27 tobacco extracts, 5 mM glutathione, 20 ppm herbicide
Sequence of GST-27 (leaf extracts of GST-27 expressing tobacco) (P46420 whole entry): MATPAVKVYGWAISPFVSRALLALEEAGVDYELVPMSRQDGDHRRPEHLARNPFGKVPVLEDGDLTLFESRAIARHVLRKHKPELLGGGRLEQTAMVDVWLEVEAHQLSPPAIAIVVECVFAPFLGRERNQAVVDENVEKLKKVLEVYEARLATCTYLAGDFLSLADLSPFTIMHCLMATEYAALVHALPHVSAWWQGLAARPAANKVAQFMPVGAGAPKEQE

[8] = system: transgenic maize seedlings expressing GST-27; experiment: Acetochlor-treated soil seedling test; format: in vivo; details: soil treated with 2,000 to 8,000 grams per hectare, 7 days
[9] = system: non-transgenic maize seedlings; experiment: Acetochlor-treated soil seedling test; format: in vivo; details: soil treated with 2,000 to 8,000 grams per hectare, absence of safener, 7 days
Wild Type tobacco = experiment: Herbicide trial of DV6/HPPD cross (Example 10); format: in vivo; details: 75 g/ha
DV6/HPPD tobacco = experiment: Herbicide trial of DV6/HPPD cross (Example 10); format: in vivo; details: 75 g/ha
[10] = system: maize seedlings which contain the PAT gene; experiment: Glufosinate spray of maize seedlings; format: in vivo; details: commercial mix, about 0.1 to 1% active ingredient
[11] = line 2, pilot experiment, 2 weeks
[12] = line 6, pilot experiment, 2 weeks

## COc1nn(-c2cccc(C(F)(F)F)c2)/c(=N\C(=O)OC(C)C)s1 [Compound II]
[1]; 37 g/ha
  Phytotoxity at 27 PAT: 3.3%
[1]; 111 g/ha
  Phytotoxity at 27 PAT: 13.3%
[1]; 333 g/ha
  Phytotoxity at 27 PAT: 20%
[1]; 1000 g/ha
  Phytotoxity at 27 PAT: 100%
[2]; 111 g/ha
  Phytotoxity at 27 PAT: 3.3%
[2]; 333 g/ha
  Phytotoxity at 27 PAT: 0%
[2]; 1000 g/ha
  Phytotoxity at 27 PAT: 3.3%
[2]; 3000 g/ha
  Phytotoxity at 27 PAT: 0%

## O=C1C(Cl)C(CCl)CN1c1cccc(C(F)(F)F)c1 (stereo not shown) [Compound I]
[1]; 333 g/ha
  Phytotoxity at 27 PAT: 0%
[1]; 1000 g/ha
  Phytotoxity at 27 PAT: 23.3%
[1]; 3000 g/ha
  Phytotoxity at 27 PAT: 100%
[1]; 9000 g/ha
  Phytotoxity at 27 PAT: 100%
[2]; 333 g/ha
  Phytotoxity at 27 PAT: 0%
[2]; 1000 g/ha
  Phytotoxity at 27 PAT: 0%
[2]; 3000 g/ha
  Phytotoxity at 27 PAT: 0%
[2]; 9000 g/ha
  Phytotoxity at 27 PAT: 0%
[2]; transgenic tomatoes
  rate to which transgenic tomatoes are highly tolerant: up to 9 kg/ha

## CCCN(CCC)C(=O)SCC [EPTC]
[3]
  % Phytotoxicity (mean, 21 DAT): 0%

## CCc1cccc(CC)c1N(COC)C(=O)CCl [Alachlor, alachlor]
wild-type tobacco
  root growth of explants: does not produce any root
wild-type tobacco; pilot experiment, 2 weeks
  concentration from which an effect of the herbicide is observable: ≥ 1 ppm
  concentration from which plants do not produce new leaves: ≥ 10 ppm
  concentration up to which roots are produced: up to 5 ppm
GST-27 tobacco lines; GST-27 lines 6 and 17, 3 weeks
  concentration up to which roots are produced: ≤ 40 ppm
GST-27 tobacco lines; Lines 9 and 16, 20 and 40 ppm, 3 weeks
  root growth of explants: do not produce any roots
GST-27 tobacco lines; [11]
  concentration from which an effect of the herbicide is observable: ≥ 20 ppm
  concentration up to which roots are produced: up to 10 ppm
GST-27 tobacco lines; [12]
  concentration from which an effect of the herbicide is observable: ≥ 40 ppm
  concentration up to which roots are produced: ≤ 20 ppm
[4]
  resistance to pre-emergent application (germination scored after 3 weeks): resistant
[5]
  resistance to post-emergent spray (damage scored after 3 weeks): resistant
Wild type controls
  growth on tissue culture medium: fail to
[6]
  growth on tissue culture medium: grow successfully

## CCOCN(C(=O)CCl)c1c(C)cccc1CC [Acetochlor, acetochlor]
[7]
  GST activity against herbicide substrate (HPLC): lowest activity
wild-type tobacco
  root growth of explants: do not show any rooting
GST-27 tobacco lines; GST-27 lines 6 and 17, 3 weeks
  root growth of explants: produce few roots at 10 and 20 ppm
GST-27 tobacco lines; lines 5 and 12, 3 weeks
  root growth of explants: not as resistant
[8]
  seedling damage: little, if any damage
[9]
  seedling damage: very substantial damage
Wild Type tobacco; Wild Type Rep a
  phytotoxicity score, 21 DAT: 40
Wild Type tobacco; Wild type Rep b
  phytotoxicity score, 21 DAT: 100
DV6/HPPD tobacco; DV6/HPPD Rep a
  phytotoxicity score, 21 DAT: 0
DV6/HPPD tobacco; DV6/HPPD Rep b
  phytotoxicity score, 21 DAT: 0

## CP(=O)(O)CCC(N)C(=O)O (stereo not shown) [glufosinate]
[10]
  resistance of seedlings to spray: either completely resistant to glufosinate, or are relatively tolerant of the herbicide

## CCc1cccc(C)c1N(C(=O)CCl)C(C)COC (stereo not shown) [Metolachlor, metolachlor]
[7]
  GST activity against herbicide substrate (HPLC): lowest activity
wild-type tobacco
  root growth of explants: produces very few tiny roots at 10 and 20 ppm
GST-27 tobacco lines; GST-27 line 17, 3 weeks
  rooting concentration limit: more than 40 ppm
GST-27 tobacco lines; GST-27 lines 6 and 17, 3 weeks
  root growth of explants: produce short roots

## CCC1CN(c2cccc(C(F)(F)F)c2)C(=O)C1C(=O)NC (stereo not shown) [Compound III]
[1]; 37 g/ha
  Phytotoxity at 27 PAT: 0%
[1]; 111 g/ha
  Phytotoxity at 27 PAT: 8.3%
[1]; 333 g/ha
  Phytotoxity at 27 PAT: 56.7%
[1]; 1000 g/ha
  Phytotoxity at 27 PAT: 100%
[2]; 111 g/ha
  Phytotoxity at 27 PAT: 0%
[2]; 333 g/ha
  Phytotoxity at 27 PAT: 0%
[2]; 1000 g/ha
  Phytotoxity at 27 PAT: 10%
[2]; 3000 g/ha
  Phytotoxity at 27 PAT: 3.3%
